Type in all cases: functional
The test system of assay [1] is NCI-H460. Nature of the assay: Cytotoxicity against human NCI-H460 cell assessed as cell death at 100 nM after 12 hrs by Hoechst 33342/propidium iodide staining based fluorescence microscopy.
The subject of assay [2] is NCI-H460. Nature of the assay: Cytotoxicity against human NCI-H460 cell assessed as cell death at 1 uM after 12 hrs by Hoechst 33342/propidium iodide staining based fluorescence microscopy.
The subject of assay [3] is NCI-H460. Kind of assay: Cytotoxicity against human NCI-H460 cell assessed as cell death at 10 nM after 12 hrs by Hoechst 33342/propidium iodide staining based fluorescence microscopy.
Assay [4] relates to NCI-H460. Nature of the assay: Cytotoxicity against human NCI-H460 cell assessed as cell death after 12 hrs by Hoechst 33342/propidium iodide staining based fluorescence microscopy. As to conditions: NCI-H460, 12 h.
The subject of assay [5] is NCI-H460. Kind of assay: Cytotoxicity against human NCI-H460 cell assessed as cell death at 100 uM after 12 hrs by Hoechst 33342/propidium iodide staining based fluorescence microscopy.
For assay [6], the system named is NCI-H460. Nature of the assay: Cytotoxicity against human NCI-H460 cells in serum free medium assessed as cell death at 10 uM after 12 hrs by Hoechst 33342/propidium iodide staining based fluorescence microscopy.
In assay [7] the test system is NCI-H460. Kind of assay: Cytotoxicity against human NCI-H460 cell assessed as cell death at 500 nM after 12 hrs by Hoechst 33342/propidium iodide staining based fluorescence microscopy.
In assay [8] the test system is NCI-H460. Nature of the assay: Cytotoxicity against human NCI-H460 cell assessed as cell death at 50 nM after 12 hrs by Hoechst 33342/propidium iodide staining based fluorescence microscopy.
For assay [9], the system named is NCI-H460. Nature of the assay: Induction of apoptosis in human NCI-H460 cells in at 50 nM after 12 hrs by Hoechst 33342/propidium iodide staining based fluorescence microscopy.

As usually defined, the IC50 is the midpoint of a concentration-inhibition curve. Consider `C[C@H]1O[C@H](O[C@H]2[C@H](O)[C@H](O)[C@@H](O[C@H]3CC[C@@]4(C)[C@H](CC[C@@H]5[C@@H]4CC[C@]4(C)[C@@H](C6=CC(=O)OC6)CC[C@]54O)C3)O[C@@H]2C)[C@@H](O)[C@@H](O)[C@@H]1O`, for which the Activity is reported as 9.87% with NCI-H460 [1]; 14.52% with NCI-H460 [2]; 6.36% with NCI-H460 [3]; 73.4% in the assay on NCI-H460 [5]; 58.09% in the assay on NCI-H460 [6]; 11.06% in the assay on NCI-H460 [7]. In addition, the Activity in the assay on NCI-H460 [8] was determined as 7.37%. The IC50 with NCI-H460 [4] is 4.27 µM.

Regarding `C[C@H]1O[C@H](O[C@H]2CC[C@@]3(C)[C@H](CC[C@@H]4[C@@H]3CC[C@]3(C)[C@@H](C5=CC(=O)OC5)CC[C@]43O)C2)CC[C@@H]1O[C@@H]1CC[C@H](O)[C@@H](C)O1`, the Activity with NCI-H460 [1] was 11.49%; in the assay on NCI-H460 [2], 15.99%; with NCI-H460 [3], 9.06%; in the assay with NCI-H460 [5], 71.1%; in the assay with NCI-H460 [6], 50.25%; with NCI-H460 [7] it was 12.91%. Also, in the assay with NCI-H460 [8], the Activity was 10.01%. Besides, the 50% inhibitory concentration (IC50) in the assay on NCI-H460 [4] was found to be 5.99 µM.

For `C[C@@H]1O[C@@H](O[C@@H]2[C@@H](O)[C@@H](O)[C@H](O[C@H]3CC[C@@]4(C)[C@H](CC[C@@H]5[C@@H]4CC[C@]4(C)[C@@H](C6=CC(=O)OC6)CC[C@]54O)C3)O[C@H]2C)[C@H](O)[C@H](O)[C@H]1O`, the Activity amounted to 20.51% in the assay on NCI-H460 [1]; 92.06% with NCI-H460 [2]; 12.68% in the assay on NCI-H460 [3]; 100% with NCI-H460 [5]; 100% in the assay on NCI-H460 [6]; 62.95% in the assay on NCI-H460 [7]. Moreover, in the assay with NCI-H460 [8], the Activity is 16.8%. In addition, in the assay on NCI-H460 [4], the 50% inhibitory concentration (IC50) was 0.365 µM.

For `C[C@H]1O[C@H](O[C@H]2CC[C@@]3(C)[C@H](CC[C@@H]4[C@@H]3CC[C@]3(C)[C@@H](C5=CC(=O)OC5)CC[C@]43O)C2)CC[C@@H]1O[C@@H]1CC[C@H](O[C@@H]2CC[C@H](O)[C@@H](C)O2)[C@@H](C)O1`, the Activity stood at 8.57% with NCI-H460 [1]; 9.84% with NCI-H460 [2]; 6.55% in the assay with NCI-H460 [3]; 53.1% in the assay with NCI-H460 [5]; 26.48% in the assay on NCI-H460 [6]; 9.11% with NCI-H460 [7]. The Activity in the assay on NCI-H460 [8] was 7.85%. Also, the IC50 with NCI-H460 [4] was determined as 33.1 µM.

As to `C[C@H]1O[C@H](O[C@H]2CC[C@@]3(C)[C@H](CC[C@@H]4[C@@H]3CC[C@]3(C)[C@@H](C5=CC(=O)OC5)CC[C@]43O)C2)[C@@H](O)[C@@H](O)[C@@H]1O`, the Activity came to 12.28% with NCI-H460 [1]; 71.67% in the assay with NCI-H460 [2]; 7.85% in the assay on NCI-H460 [3]; 100% in the assay on NCI-H460 [5]; 95.72% in the assay on NCI-H460 [6]; 45.71% in the assay with NCI-H460 [9]. In addition, the Activity is recorded as 35.05% with NCI-H460 [7] and 12.14% with NCI-H460 [8]. Also, the IC50 in the assay on NCI-H460 [4] was found to be 0.706 µM.

As for `C[C@@H]1O[C@@H](O[C@H]2CC[C@@]3(C)[C@H](CC[C@@H]4[C@@H]3CC[C@]3(C)[C@@H](C5=CC(=O)OC5)CC[C@]43O)C2)[C@H](O)[C@H](O)[C@H]1O`, the Activity in the assay on NCI-H460 [1] is reported as 96.96%; in the assay on NCI-H460 [2], 100%; with NCI-H460 [3], 17.04%; in the assay with NCI-H460 [5], 100%; with NCI-H460 [6], 100%; in the assay on NCI-H460 [9] it was 48.64%. The figures for the Activity with NCI-H460 [7] and in the assay with NCI-H460 [8] were 100% and 60.56%, respectively.

In the case of `C[C@H]1O[C@H](O[C@H]2[C@H](O)[C@H](O)[C@@H](O[C@H]3[C@H](O)[C@H](O)[C@@H](O[C@H]4CC[C@@]5(C)[C@H](CC[C@@H]6[C@@H]5CC[C@]5(C)[C@@H](C7=CC(=O)OC7)CC[C@]65O)C4)O[C@@H]3C)O[C@@H]2C)[C@@H](O)[C@@H](O)[C@@H]1O`, the Activity in the assay on NCI-H460 [1] was 7.17%; in the assay on NCI-H460 [2] it was 8.37%; in the assay with NCI-H460 [3], 6.44%; in the assay with NCI-H460 [5] it was 59.91%; in the assay on NCI-H460 [6] it was 28.42%; with NCI-H460 [7], 7.99%. For the same molecule, the Activity in the assay with NCI-H460 [8] came out at 6.85%. The IC50 with NCI-H460 [4] stood at 18 µM.

With `C[C@@H]1O[C@@H](O[C@@H]2CC[C@H](O[C@@H]3CC[C@H](O[C@H]4CC[C@@]5(C)[C@H](CC[C@@H]6[C@@H]5CC[C@]5(C)[C@@H](C7=CC(=O)OC7)CC[C@]65O)C4)O[C@H]3C)O[C@H]2C)CC[C@H]1O`, the Activity with NCI-H460 [1] is 11.8%; in the assay with NCI-H460 [2], 25.85%; in the assay with NCI-H460 [3] it was 8.34%; in the assay on NCI-H460 [5], 91.74%; with NCI-H460 [6], 70.17%; in the assay on NCI-H460 [7], 16.46%. For the same molecule, the Activity in the assay with NCI-H460 [8] stood at 10.85%. Also, the half-inhibitory concentration (IC50) in the assay with NCI-H460 [4] was 3.96 µM.

For `C[C@@H]1O[C@@H](O[C@@H]2CC[C@H](O[C@H]3CC[C@@]4(C)[C@H](CC[C@@H]5[C@@H]4CC[C@]4(C)[C@@H](C6=CC(=O)OC6)CC[C@]54O)C3)O[C@H]2C)CC[C@H]1O`, the Activity in the assay with NCI-H460 [1] is recorded as 18.03%; in the assay with NCI-H460 [2], 94.59%; in the assay with NCI-H460 [3], 8.73%; in the assay with NCI-H460 [5], 100%; with NCI-H460 [6], 100%; in the assay with NCI-H460 [7] it was 53.76%. The Activity in the assay on NCI-H460 [8] is 14.89%. In addition, the IC50 in the assay on NCI-H460 [4] is 0.51 µM.

Consider `C[C@@H]1O[C@@H](O[C@@H]2[C@@H](O)[C@@H](O)[C@H](O[C@@H]3[C@@H](O)[C@@H](O)[C@H](O[C@H]4CC[C@@]5(C)[C@H](CC[C@@H]6[C@@H]5CC[C@]5(C)[C@@H](C7=CC(=O)OC7)CC[C@]65O)C4)O[C@H]3C)O[C@H]2C)[C@H](O)[C@H](O)[C@H]1O`, for which the Activity worked out at 15.21% in the assay with NCI-H460 [1]; 43.65% in the assay with NCI-H460 [2]; 10.71% in the assay with NCI-H460 [3]; 100% with NCI-H460 [5]; 94.07% in the assay on NCI-H460 [6]; 38.97% with NCI-H460 [7]. Moreover, the Activity in the assay with NCI-H460 [8] was found to be 12.17%. In the assay on NCI-H460 [4], the IC50 is 1.35 µM.

Source of the values: ChEMBL document CHEMBL1817541, “Synthesis and Evaluation of the α-D-/α-L-Rhamnosyl and Amicetosyl Digitoxigenin Oligomers as Anti-tumor Agents” (ACS Med Chem Lett, 2011).
